Laboratory results from US20120157439A1, “RAF INHIBITOR COMPOUNDS AND METHODS OF USE THEREOF” (GENENTECH, INC., priority 2009, published 2012).
Read-outs that look alike come from different tables or passages of the source.

Target: T1, V600E full-length B-Raf (Homo sapiens, UniProt P15056, V600E)
T1 construct: 1 μM FSBA-MEK and 20 nM V600E full-length B-Raf; made in house; host or cells: sf9 insect cells (baculovirus)
Assay: B-Raf IC50 Assay (B-RAF V600E inhibition assay, Example A)
Type: biochemical
Description: Determining the activity of Raf in the sample is possible by a number of direct and indirect detection methods (US 2004/0082014). Activity of human recombinant B-Raf protein may be assessed in vitro by assay of the incorporation of radio labeled phosphate to recombinant MAP kinase (MEK), a known physiologic substrate of B-Raf, according to US 2004/0127496 and WO 03/022840. The activity/inhibition of V600E full-length B-Raf was estimated by measuring the incorporation of radio labeled phosphate from [γ-33P]ATP into FSBA-modified wild-type MEK (see Example A).
Activity of human recombinant B-Raf protein may be assessed in vitro by assay of the incorporation of radio labeled phosphate to recombinant MAP kinase (MEK), a known physiologic substrate of B-Raf, according to U.S. Patent Appl. Publication No. 2004/0127496 and WO 03/022840. Catalytically active human recombinant B-Raf protein is obtained by purification from sf9 insect cells infected with a human B-Raf recombinant baculovirus expression vector.
The activity/inhibition of V600E full-length B-Raf was estimated by measuring the incorporation of radio labeled phosphate from [γ-33P]ATP into FSBA-modified wild-type MEK. The […] assay mixtures contained 25 mM Na Pipes, pH 7.2, 100 mM KCl, 10 mM MgCl2, 5 mM β-glycerophosphate, 100 μM Na Vanadate, 4 μM ATP, 500 nCi [γ-33P]ATP, 1 μM FSBA-MEK and 20 nM V600E full-length B-Raf. Incubations were carried out at 22° C. in a Costar 3365 plate (Corning). Prior to the assay, the B-Raf and FSBA-MEK were preincubated together in assay buffer at 1.5× (20 μL of 30 nM and 1.5 μM, respectively) for 15 minutes, and the assay was initiated by the addition of 10 μL of […]. Following the 60-minute incubation, the assay mixtures were quenched by the addition of 100 μL of 25% TCA, the plate was mixed on a rotary shaker for 1 minute, and the product was captured on a Perkin-Elmer GF/B filter plate using a Tomtec Mach III Harvester. After sealing the bottom of the plate, 35 μL of Bio-Safe II (Research Products International) scintillation cocktail were added to each well and the plate was top-sealed and counted in a Topcount NXT (Packard).

[1] = B-Raf V600E assay of Example A: less than 100 nM, read-out: IC50
[2] = B-Raf V600E assay of Example A: less than about 1 μM, read-out: IC50
[3] = incorporation of radio labeled phosphate from [γ-33P]ATP into FSBA-modified wild-type MEK, 4 μM ATP, 20 nM V600E full-length B-Raf, 60-minute incubation, 22° C., read-out: BRAF V600E IC50

T1 sequence (P15056 whole entry V600E): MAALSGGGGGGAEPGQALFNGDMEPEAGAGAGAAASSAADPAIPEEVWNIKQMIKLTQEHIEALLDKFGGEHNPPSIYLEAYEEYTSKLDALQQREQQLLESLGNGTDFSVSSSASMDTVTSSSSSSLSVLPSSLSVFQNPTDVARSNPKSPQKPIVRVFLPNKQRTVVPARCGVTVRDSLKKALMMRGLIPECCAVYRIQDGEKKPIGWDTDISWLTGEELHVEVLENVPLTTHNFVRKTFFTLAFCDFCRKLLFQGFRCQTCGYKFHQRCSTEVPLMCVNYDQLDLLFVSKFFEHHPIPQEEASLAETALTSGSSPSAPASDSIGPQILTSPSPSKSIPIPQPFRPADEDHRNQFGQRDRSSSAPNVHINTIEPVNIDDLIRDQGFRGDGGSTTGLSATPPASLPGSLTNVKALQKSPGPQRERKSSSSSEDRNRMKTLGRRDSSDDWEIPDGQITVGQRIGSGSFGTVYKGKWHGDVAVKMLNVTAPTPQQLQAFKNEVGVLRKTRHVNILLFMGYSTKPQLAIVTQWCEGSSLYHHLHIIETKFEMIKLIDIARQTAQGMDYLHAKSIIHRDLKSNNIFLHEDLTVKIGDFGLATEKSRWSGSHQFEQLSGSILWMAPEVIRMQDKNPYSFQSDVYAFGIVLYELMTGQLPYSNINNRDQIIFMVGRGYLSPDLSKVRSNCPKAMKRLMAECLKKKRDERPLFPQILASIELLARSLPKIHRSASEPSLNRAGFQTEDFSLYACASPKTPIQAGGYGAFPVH

IC50 [1]	IC50 [2]	IC50 [3]	SMILES
< 100 nM	< 1000 nM	2 nM	CC(C)CS(=O)(=O)Nc1ccc(Cl)c(NC(=O)c2csc3c(N)ncnc23)c1F [Example 22, 4-Amino-thieno[3,2-d] pyrimidine-7-carboxylic acid [6-chloro-2-fluoro-3-(2-methyl-propane-1-sulfonylamino)-phenyl]-amide]
< 100 nM	< 1000 nM	0.8 nM	CCCS(=O)(=O)Nc1cc(F)c(F)c(NC(=O)c2csc3c(N)ncnc23)c1F [Example 23, 4-Amino-thieno[3,2-d] pyrimidine-7-carboxylic acid [2,3,6-trifluoro-5-(pro-pane-1-sulfonyl-amino)-phenyl]-amide]
< 100 nM	< 1000 nM	0.11 nM	Nc1ncnc2c(C(=O)Nc3c(Cl)ccc(NS(=O)(=O)CCCF)c3Cl)csc12 [Example 24, 4-Amino-thieno[3,2-d] pyrimidine-7-carboxylic acid [2,6-dichloro-3-(3-fluoro-propane-1-sulfonylamino)-phenyl]-amide]
< 100 nM	< 1000 nM	7.2 nM	CCCS(=O)(=O)Nc1cccc(NC(=O)c2csc3c(N)ncnc23)c1Cl [Example 25, 4-Amino-thieno[3,2-d]pyrimidine-7-carboxylic acid[2-chloro-3-(propane-1-sulfonylamino)-phenyl]-amide]
< 100 nM	< 1000 nM	20 nM	CCCS(=O)(=O)Nc1cccc(NC(=O)c2csc3c(N)ncnc23)c1F [Example 26, 4-Amino-thieno[3,2-d]pyrimidine-7-carboxylic acid[2-fluoro-3-(propane-1-sulfonylamino)-phenyl]-amide]
–	< 1000 nM	125 nM	CCCS(=O)(=O)Nc1ccc(F)c(NC(=O)c2csc3c(N)ncnc23)c1 [Example 27, 4-Amino-thieno[3,2-d]pyrimidine-7-carboxylic acid[2-fluoro-5-(propane-1-sulfonylamino)-phenyl]-amide]
< 100 nM	< 1000 nM	11.6 nM	Nc1ncnc2c(C(=O)Nc3c(F)ccc(NS(=O)(=O)N4CCCC4)c3F)csc12 [Example 28, 4-Amino-thieno[3,2-d]pyrimidine-7-carboxylic acid[2,6-difluoro-3-(pyrrolidine-1-sulfonylamino)-phenyl]-amide]
< 100 nM	< 1000 nM	88 nM	CN(C)S(=O)(=O)Nc1ccc(F)c(NC(=O)c2csc3c(N)ncnc23)c1F [Example 29, 4-Amino-N-(3-(N,N-dimethylsulfamoylamino)-2,6-difluorophenyl)thieno[3,2-d]pyrimidine-7-carboxamide]
< 100 nM	< 1000 nM	1.2 nM	CCCS(=O)(=O)Nc1ccc(F)c(NC(=O)c2nsc3c(N)ncnc23)c1F [Example 30, 7-Amino-isothiazolo[4,5-d]pyrimidine-3-carboxylic acid [2,6-difluoro-3-(propane-1-sulfonylamino)-phenyl]-amide]
< 100 nM	< 1000 nM	0.82 nM	Nc1ncnc2c(C(=O)Nc3c(F)ccc(NS(=O)(=O)CCCF)c3F)nsc12 [Example 31, 7-Amino-isothiazolo[4,5-d]pyrimidine-3-carboxylic acid [2,6-difluoro-3-(3-fluoro-propane-1-sulfonylamino)-phenyl]-amide]
< 100 nM	< 1000 nM	0.18 nM	Nc1ncnc2c(C(=O)Nc3c(Cl)ccc(NS(=O)(=O)CCCF)c3F)nsc12 [Example 32, 7-Amino-isothiazolo[4,5-d]pyrimidine-3-carboxylic acid [6-chloro-2-fluoro-3-(3-fluoro-propane-1-sulfonylamino)-phenyl]-amide]
< 100 nM	< 1000 nM	0.38 nM	CCCS(=O)(=O)Nc1cccc(NC(=O)c2nsc3c(N)ncnc23)c1C#N [Example 33, 7-Amino-isothiazolo[4,5-d]pyrimidine-3-carboxylic acid [2-cyano-3-(propane-1-sulfonylamino)-phenyl]-amide]
< 100 nM	< 1000 nM	5 nM	CCCS(=O)(=O)Nc1ccc(F)c(NC(=O)c2snc3c(N)ncnc23)c1F [Example 34, 7-Amino-isothiazolo[4,3-d]pyrimidine-3-carboxylic acid [2,6-difluoro-3-(propane-1-sulfonylamino)-phenyl]-amide]
–	< 1000 nM	105 nM	CCCS(=O)(=O)Nc1ccc(F)c(NC(=O)c2snc3c(NCC)ncnc23)c1F [Example 35, 7-Ethylamino-isothiazolo[4,3-d]pyrimidine-3-carboxylic acid [2,6-difluoro-3-(propane-1-sulfonylamino)-phenyl]-amide]
–	< 1000 nM	194 nM	CCCS(=O)(=O)Nc1ccc(F)c(NC(=O)c2snc3c(NC4CC4)ncnc23)c1F [Example 36, 7-(Cyclopropylamino)-N-(2,6-difluoro-3-(propylsulfonamido)phenyl)isothiazolo[4,3-d]pyrimidine-3-carboxamide]
< 100 nM	< 1000 nM	9.2 nM	CCCS(=O)(=O)Nc1ccc(F)c(NC(=O)c2csc3c(NOC)ncnc23)c1Cl [Example 37, 4-Methoxyamino-thieno[3,2-d]pyrimidine-7-carboxylic acid [2-chloro-6-fluoro-3-(propane-1-sulfonylamino)-phenyl]-amide]
< 100 nM	< 1000 nM	46.5 nM	CCCS(=O)(=O)Nc1ccc(F)c(NC(=O)c2csc3c(C)ncnc23)c1Cl [Example 38, 4-Methyl-thieno[3,2-d]pyrimidine-7-carboxylic acid [2-chloro-6-fluoro-3-(propane-1-sulfonylamino)-phenyl]-amide]
< 100 nM	< 1000 nM	1.11 nM	Cc1ncnc2c(C(=O)Nc3c(Cl)ccc(NS(=O)(=O)CCCF)c3Cl)csc12 [Example 39, 4-Methyl-thieno[3,2-d]pyrimidine-7-carboxylic acid [2,6-dichloro-3-(3-fluoro-propane-1-sulfonylamino)-phenyl]-amide]
< 100 nM	< 1000 nM	85.5 nM	CCCS(=O)(=O)Nc1ccc(F)c(NC(=O)c2csc3c(C)ncnc23)c1F [Example 40, 4-Methyl-thieno[3,2-d]pyrimidine-7-carboxylic acid [2,6-difluoro-3-(propane-1-sulfonylamino)-phenyl]-amide]
–	< 1000 nM	112 nM	CCCS(=O)(=O)Nc1ccc(F)c(NC(=O)c2csc3c(CC)ncnc23)c1F [Example 41, 4-Ethyl-thieno[3,2-d]pyrimidine-7-carboxylic acid [2,6-difluoro-3-(propane-1-sulfonylamino)-phenyl]-amide]
< 100 nM	< 1000 nM	26 nM	CCCS(=O)(=O)Nc1ccc(F)c(NC(=O)c2csc3c(C(F)F)ncnc23)c1F [Example 42, 4-Difluoromethyl-thieno[3,2-d]pyrimidine-7-carboxylic acid [2,6-difluoro-3-(propane-1-sulfonylamino)-phenyl]-amide]
< 100 nM	< 1000 nM	1.9 nM	CCCS(=O)(=O)Nc1ccc(F)c(NC(=O)c2csc3c(NC4CC4)ncnc23)c1Cl [Example 43, 4-Cyclopropylamino-thieno[3,2-d]pyrimidine-7-carboxylic acid [2-chloro-6-fluoro-3-(propane-1-sulfonylamino)-phenyl]-amide]
< 100 nM	< 1000 nM	8.7 nM	CCCS(=O)(=O)Nc1ccc(F)c(NC(=O)c2csc3c(NCC)ncnc23)c1Cl [Example 44, 4-Ethylamino-thieno[3,2-d]pyrimidine-7-carboxylic acid [2-chloro-6-fluoro-3-(propane-1-sulfonylamino)-phenyl]-amide]
< 100 nM	< 1000 nM	4.1 nM	CCCNc1ncnc2c(C(=O)Nc3c(F)ccc(NS(=O)(=O)CCC)c3Cl)csc12 [Example 45, 4-Propylamino-thieno[3,2-d]pyrimidine-7-carboxylic acid [2-chloro-6-fluoro-3-(propane-1-sulfonylamino)-phenyl]-amide]
